In this assay the target is T1, HSD17B13 enzyme (Homo sapiens, UniProt Q7Z5P4).
T1 construct: His; made in house; host or cells: E. coli
T1 sequence (Q7Z5P4 20-300): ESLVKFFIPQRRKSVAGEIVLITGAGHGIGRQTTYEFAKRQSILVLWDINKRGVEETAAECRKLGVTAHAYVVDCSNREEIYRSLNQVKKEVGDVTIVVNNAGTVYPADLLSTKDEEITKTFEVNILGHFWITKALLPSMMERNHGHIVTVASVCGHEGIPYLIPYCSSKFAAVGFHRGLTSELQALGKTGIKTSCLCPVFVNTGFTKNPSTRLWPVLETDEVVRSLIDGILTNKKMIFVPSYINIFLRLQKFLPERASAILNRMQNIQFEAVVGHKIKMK
In words: NADH detection assay (fluorescence based LTB3 assay) for HSD17B13 activity. The assay is classed as biochemical. As to conditions: substrate 25 μM LTB3, 3 mM NAD+, 125 nM HSD17B13 enzyme, 1 hour at 26.5° C. As to the method: Example A: NADH Detection Assay for Evaluation of HSD17ß13 Activity and Identification of Inhibitors
The fluorescence based Leukotriene B3 (LTB3) assay monitors the fluorescence of NADH, which is generated from NAD+ during the dehydrogenation of the substrate LTB3. The reactions were performed in a 384-well plates (Greiner; #655076) in a 20 μl reaction volume containing the following reagents (final concentrations): 25 μM LTB3 (Cayman; #20109); 3 mM NAD+ (Sigma; #N0623); 125 nM HSD17B13 enzyme (in-house; E. coli expressed His-tagged, purified, soluble protein); […] potassium phosphate buffer, pH 7.4; and 1% DMSO. Reactions were initiated by co-addition of NAD+ and enzyme, and monitored for 1 hour at 26.5° C. Generation of NADH was measured as the fluorescence signal (Excitation at 340 nm and Emission at 445 nm) at 1 hour minus the baseline fluorescence at t=0. Fluorescence signals in the absence of LTB3 (negative control values), were subtracted from all values so that the results reflected substrate-dependent production of NADH. NADH standards were included to allow the conversion of relative fluorescence units into rates of enzyme activity. Enzyme activity in the presence of test compounds was expressed as a percentage of the uninhibited enzyme activity, and plotted versus inhibitor concentration. Non-linear regression was performed using a four-parameter logistic model and GraphPad Prism software (GraphPad Software, La Jolla, CA). Ten concentrations of inhibitor were tested (in the range of 30 μM-2.5 nM), and two independent assessments were performed at each concentration.

The term IC50 denotes the concentration that inhibits the measured activity by half. A higher IC50 goes with weaker potency.

A value given as a limit tells only on which side of the number the result lay.

`Oc1cc(Oc2cccc(-c3cccnc3)n2)ccc1F` [Example 1, 5-([2,3′-bipyridin]-6-yloxy)-2-fluorophenol] yielded an IC50 not above 5 µM. `Oc1cccc(-c2cccc(Oc3cccnc3)n2)c1F` [Example 2, 2-fluoro-3-(6-(pyridin-3-yloxy)pyridin-2-yl) phenol]: the IC50 was 5 to 10 µM. As for `Oc1cc(Oc2cccc(-c3ccc4cn[nH]c4c3)n2)ccc1F` [Example 3, 5-((6-(1H-indazol-6-yl)pyridin-2-yl)oxy)-2-fluorophenol], the figure is 5 to 10 µM. `Oc1cccc(-c2cccc(Oc3ccc4cn[nH]c4c3)n2)c1F` [Example 4, 6-((6-(2-fluoro-3-methoxyphenyl)pyridin-2-yl)oxy)-1H-indazole and 3-(6-((1H-indazol-6-yl)oxy)pyridin-2-yl)-2 fluorophenol] yielded an IC50 not above 5 µM.

Compound `O=c1ccc(Oc2cccc(-c3cccc(O)c3F)n2)cn1C(F)F` [Example 5, 1-(difluoromethyl)-5-((6-(2-fluoro-3-hydroxyphenyl)pyridin-2-yl)oxy)pyridin-2(1H)-one] registered an IC50 of more than 30 µM.

Compound `COc1cccc(-c2cccc(Oc3ccc4c(c3)NC(=O)C4)n2)c1F` [Example 6, 6-{[6-(2-fluoro-3-methoxyphenyl)pyridin-2-yl]oxy}-2,3-dihydro-1H-indol-2-one] returned an IC50 of more than 30 µM. As for `O=C1Cc2ccc(Oc3cccc(-c4cccc(O)c4F)n3)cc2N1` [Example 7], the figure is more than 30 µM; as for `Oc1cc(Oc2cccc(-c3cccs3)n2)ccc1F` [Example 8, 2-fluoro-5-((6-(thiophen-2-yl)pyridin-2-yl)oxy) phenol], 5 to 10 µM.

`Oc1cc(Oc2cccc(-c3cc4ccccc4s3)n2)ccc1F` [Example 9, 5-((6-(benzo[b]thiophen-2-yl)pyridin-2-yl)oxy)-2-fluorophenol]: the half-maximal inhibitory concentration (IC50) lay in the range of 10 to 30 µM. As for `COc1cc(Oc2nccc(-c3cccc(O)c3F)n2)ccc1F` [Example 10, 2-fluoro-3-[2-(4-fluoro-3-methoxyphenoxy)pyrimidin-4-yl]phenol], the figure is more than 30 µM; as for `Oc1cc(Oc2nccc(-c3cccc(O)c3F)n2)ccc1F` [Example 11, 2-fluoro-3-[2-(4-fluoro-3-hydroxyphenoxy)pyrimidin-4-yl]phenol], 10 to 30 µM. `Oc1cc(Oc2cccc(-c3ccc(OCc4ccccc4)cc3)n2)ccc1F` [Example 12, 5-((6-(4-(benzyloxy)phenyl)pyridin-2-yl)oxy)-2-fluorophenol]: the IC50 is not above 5 µM. Consider `Oc1cccc(-c2cccc(Oc3ccc(F)c(C(F)F)c3)n2)c1F` [Example 13, 3-{6-[3-(difluoromethyl)-4-fluorophenoxy]pyridin-2-yl}-2-fluorophenol], for which the concentration for half-maximal inhibition (IC50) lay in the range of 5 to 10 µM. As to `Oc1cccc(-c2cccc(Oc3ccc(F)c(OC(F)F)c3)n2)c1F` [Example 14, 3-{6-[3-(difluoromethoxy)-4-fluorophenoxy]pyridin-2-yl}-2-fluorophenol], the IC50 was more than 30 µM. The compound `Oc1cc(Sc2cccc(-c3cccc(O)c3F)n2)ccc1F` [Example 15, 2-fluoro-3-(6-((4-fluoro-3-hydroxyphenyl)thio)pyridin-2-yl) phenol] had an IC50 not above 5 µM. In turn, `COc1cc(Oc2ccnc(-c3cccc(O)c3F)n2)ccc1F` [Example 16, 2-fluoro-3-[4-(4-fluoro-3-methoxyphenoxy)pyrimidin-2-yl]phenol] returned an IC50 of more than 30 µM. To `Oc1cc(Oc2ccnc(-c3cccc(O)c3F)n2)ccc1F` [Example 17, 2-fluoro-3-[4-(4-fluoro-3-hydroxyphenoxy)pyrimidin-2-yl]phenol] belongs not above 5 µM. In turn, `O=S(=O)(Nc1cccc(-c2cccc(Oc3ccc(F)c(O)c3)n2)c1)c1ccccc1` [Example 18, N-(3-(6-(4-fluoro-3-hydroxyphenoxy)pyridin-2-yl)phenyl) benzenesulfonamide] yielded an IC50 not above 5 µM. `CN(C)S(=O)(=O)c1cccc(-c2cccc(Oc3ccc(F)c(O)c3)n2)c1` [Example 20, 3-(6-(4-fluoro-3-hydroxyphenoxy)pyridin-2-yl)-N,N-dimethylbenzenesulfonamide] came in with an IC50 of 5 to 10 µM. Turning to `CNc1nc2cc(-c3cccc(Oc4ccc(F)c(O)c4)n3)ccc2s1` [Example 21], the IC50 is 5 to 10 µM. As for `N#Cc1c(Oc2ccc(F)c(O)c2)cccc1-c1cccc(O)c1F` [Example 22, 2′-fluoro-3-(4-fluoro-3-hydroxyphenoxy)-3′-hydroxy-[1,1′-biphenyl]-2-carbonitrile], the 50% inhibitory concentration (IC50) was not above 5 µM. `CN(c1ccc(F)c(O)c1)c1cccc(-c2cccc(O)c2F)c1C#N` [Example 23] gave an IC50 of more than 30 µM. With `NC(=O)c1ccc(-c2cccc(O)c2F)nc1Oc1ccc(F)c(O)c1` [Example 25, 2-(4-fluoro-3-hydroxyphenoxy)-6-(2-fluoro-3-hydroxyphenyl)pyridine-3-carboxamide], the IC50 is not above 5 µM.

In turn, `CC(=O)Nc1nc2cc(-c3cccc(Oc4ccc(F)c(O)c4)n3)ccc2[nH]1` [Example 26, N-(5-(6-(4-fluoro-3-hydroxyphenoxy)pyridin-2-yl)-1H-benzo [d]imidazol-2-yl)acetamide] returned an IC50 not above 5 µM. As for `N#Cc1cc(Oc2ccc(F)c(O)c2)nc(-c2cccc(O)c2F)c1` [Example 27, 2-(4-fluoro-3-hydroxyphenoxy)-6-(2-fluoro-3-hydroxyphenyl) pyridine-4-carbonitrile], the figure is not above 5 µM; as for `Oc1cc(Oc2cccc(-c3ccc(O)c(OCc4ccccc4)c3)n2)ccc1F` [Example 28, 2-(benzyloxy)-4-[6-(4-fluoro-3-hydroxyphenoxy)pyridin-2-yl] phenol], not above 5 µM. In turn, `NS(=O)(=O)Nc1cc(Oc2cccc(-c3cccc(O)c3F)n2)ccc1F` [Example 30, N-(2-fluoro-5-{[6-(2-fluoro-3-hydroxyphenyl)pyridin-2-yl]oxy}phenyl)aminosulfonamide] had an IC50 of more than 30 µM.

As to `O=S1(=O)CCN(c2ccc(-c3cccc(Oc4ccc(F)c(O)c4)n3)cc2)CC1` [Example 31, 4-(4-(6-(4-fluoro-3-hydroxyphenoxy)pyridin-2-yl)phenyl)thiomorpholine 1,1-dioxide], the IC50 is not above 5 µM. With `Nc1nc2cc(-c3cccc(Oc4ccc(F)c(O)c4)n3)ccc2o1` [Example 32, 5-{[6-(2-amino-1,3-benzoxazol-5-yl)pyridin-2-yl]oxy}-2-fluorophenol], the IC50 is 5 to 10 µM.

`CN1CCOc2cc(-c3cccc(Oc4ccc(F)c(O)c4)n3)ccc21` [Example 33, 2-fluoro-5-((6-(4-methyl-3,4-dihydro-2H-benzo[b][1,4]oxazin-7-yl)pyridin-2-yl)oxy)phenol]: the IC50 is not above 5 µM. Consider `Oc1cc(Oc2cccc(-c3ccc(OCc4ccccc4)c(F)c3)n2)ccc1F` [Example 34, 5-({6-[4-(benzyloxy)-3-fluorophenyl]pyridin-2-yl}oxy)-2-fluorophenol], for which the IC50 was more than 30 µM. To `COc1ccc(Oc2cccc(-c3cccc(O)c3F)n2)cc1C(=O)O` [Example 35, 5-((6-(2-fluoro-3-hydroxyphenyl)pyridin-2-yl)oxy)-2-methoxybenzoic acid] belongs more than 30 µM; to `Oc1cccc(Oc2cccc(-c3cccc(O)c3F)n2)c1F` [Example 36, 2-fluoro-3-(6-(2-fluoro-3-hydroxyphenoxy)pyridin-2-yl)phenol], not above 5 µM; to `Oc1ccc(Oc2cccc(-c3cccc(O)c3F)n2)cc1F` [Example 37, 2-fluoro-3-[6-(3-fluoro-4-hydroxyphenoxy)pyridin-2-yl] phenol], not above 5 µM.

These data come from patent publication US12643858B2 (Inipharm, Inc., priority 2020, dated 2026).
